Legend:
[1] = tested on: GD3-KLH and MUC1-KLH conjugates; conditions: mouse; cited from earlier work
monoclonal antibody F12 = test: Binding to monoclonal antibody F12 (ELISA, immune thin layer chromatography, inhibition)
Text: In yet another example, a fucosyl GM1-KLH glycoconjugate is generated according to the method of the present invention, as discussed in Example 1. […] Clearly, the synthetic fucosyl GM1 pentenyl glycoside provides the antigenic epitope with which F12 reacts on SCLC cells.

| Substance | augmentation of antibody responses compared to the conjugates alone [1] | binding to monoclonal antibody F12 (monoclonal antibody F12; ELISA and immune thin layer chromatography assays, prior to conjugation) | inhibition of reactivity of natural fucosyl GM1 with F12 (monoclonal antibody F12; preincubation of F12) |
| --- | --- | --- | --- |
| QS-21 | 1000-100,000 fold |  |  |
| fucosyl GM1 pentenyl glycoside [n-pentenyl fucosyl GM1] |  | shown to bind | completely inhibits |

— US7824687B2, “Clustered multi-antigenic carbohydrate constructs, methods for their preparation, and uses thereof” (Sloan-Kettering Institute For Cancer Research, priority 1999, dated 2010)
